Data taken from patent US10568949B2, “Method of eliciting an anti-tumor immune response with controlled delivery of TLR agonists in porous polymerlc devices” (President and Fellows of Harvard College, priority 2008, dated 2020).

B1: CCL20 (protein, UniProt O89093 28-97, looked up)
C-C motif chemokine 20: ASNYDCCLSYIQTPLPSRAIVGFTRQMADEACDINAIIFHTKKRKSVCADPKQNWVKRAVNLLSLRVKKM
notes: recombinant murine cytokine (Peprotech) released from PLG matrices
B2: Fms-related tyrosine kinase 3 ligand (protein, UniProt P49772 27-232, looked up)
Fms-related tyrosine kinase 3 …: GTPDCYFSHSPISSNFKVKFRELTDHLLKDYPVTVAVNLQDEKHCKALWSLFLAQRWIEQLKTVAGSKMQTLLEDVNTEIHFVTSCTFQPLPECLRFVQTNISHLLKDTCTQLLALKPCIGKACQNFSRCLEVQCQPDSSTLLPPRSPIALEATELPEPRPRQLLLLLLLLLPLTLVLLAAAWGLRWQRARRRGELHPGVPLPSHP
notes: as for B1

Tests used:
[1] = test system: B16-F10 melanoma cells; experiment: Example 7: therapeutic vaccination of established B16-F10 melanoma
Description: To assess PLG vaccine efficacy in the therapeutic setting, C57/BL6J mice were challenged with a subcutaneous injection of 5×10^5 B16-F10 melanoma cells (ATCC, Manassas, N.J.) in the back of the neck. At day 9 after tumor challenge PLG vaccines loaded with 3000 ng GM-CSF in combination with 100 μg of CpG-ODN, MPLA or P(I:C), and tumor lysates were implanted subcutaneously into the lower left flank of C57BL/6J mice. A subset of mice were vaccinated again 10 days after the initial vaccination (Days 19 and 23).
Mice challenged with 5×10^5B16-F10 melanoma cells were subsequently vaccinated at days 9 and 19, after tumors were established.

[2] = test system: B16-F10 melanoma cells; experiment: Example 7: prophylactic vaccination, B16-F10 melanoma; type: in vivo, C57BL/6J mice; set-up: concentration or dose not given beside the values; conditions: B16-F10 tumor lysates and GM-CSF, with or without TLR agonist; challenge at day 14
[3] = test system: B16-F10 tumors; experiment: Example 7: tumor infiltrating leukocyte (TIL) characterization; set-up: species or system C57BL/6J mice; conditions: mouse, in vivo
Description: On the indicated days, B16-F10 tumors were removed from mice, and digested in 1 mg/mL collagenase II (250 U/ml) (Worthington, Lakewood, N.J.) and 0.1 mg/mL DNase for 1 hour at 37° C. Dissociated cells were filtered through a 40-μm filter, and directly stained with antibodies for phenotype characterization by fluorescence-activated cell sorting (FACS) analysis. APC-anti-CD8 and PE-Cy7-anti CD3 were used to identify T cells isolated from the B16F10 tumors. These TILs were also costained with FITC-anti-IFNγ, and PE-anti-CD107a. All antibodies were obtained from eBioscience, San Diego, Calif.

[4] = test system: IL-12p70; experiment: Example 7: cytokine concentrations at implant site; type: in vivo, C57BL/6J mice; conditions: with GM-CSF
Description: To determine in vivo IL-12p70 concentration at the matrix implant site, adjacent tissue was excised and digested with tissue protein extraction reagent. After centrifugation, the concentrations of IL-12, in the supernatant were then analyzed with ELISA (R&D systems), according to the manufacturer's instructions.

[5] = test system: dendritic cells; experiment: Example 7: DC recruitment and activation in matrices with GM-CSF and TLR agonists (FACS, day 7); type: in vivo, C57BL/6J mice; conditions: with GM-CSF
Excerpt: The cell suspensions were then poured through a 40 μm cell strainer to isolate cells from scaffold particles and the cells were pelleted and washed with cold PBS and counted using a Z2 coulter counter (Beckman Coulter). To assess, DC infiltration and activation, subsets of the total cell population isolated from PLG matrices were then stained with primary antibodies (BD Pharmingen, San Diego, Calif.) conjugated to fluorescent markers to allow for analysis by flow cytometry. APC-conjugated CD11c (dendritic cell marker), FITC-conjugated MHCII and PE-conjugated CD86 (B7, costimulatory molecule) stains were conducted for DC recruitment and activation analysis. To further delineate the presence of specific DC subsets, cells were also stained with APC-conjugated CD11c and PE-conjugated PDCA-1 (plasmacytoid DC marker) or APC-conjugated CD11c and PE-conjugated CD8 (CD8 DCs). To assess T-cell infiltration PE-Cy7 conjugated CD3 stains were performed in conjunction with APC-conjugated CD8a (CD8 T cells), and PE-conjugated FoxP3 (Treg) and analyzed with flow cytometry. Cells were gated according to single positive FITC, APC and PE stainings and using isotype controls. The percentage of cells staining positive for each surface antigen was recorded. To examine the ability of PLG matrices to recruit and activate dendritic cells in vivo, matrices delivering GM-CSF in combination with danger signals were implanted subcutaneously into the backs of C57BL/6J mice. The magnitude of DC infiltration and activation into the matrices was determined by FACS analysis of cell populations isolated from the polymeric material after 7 days.

[6] = test system: IL-12p70 and IFN-γ; conditions: tumor lysate and CpG-ODN
Description: To determine the in vivo IL-12p70 and IFN-γ concentration at the matrix implant site, adjacent tissue was excised and digested with tissue protein extraction reagent at Day 10 after implantation (Pierce). After centrifugation, the concentrations of IL-12 and IFN-γ, in the supernatant were then analyzed with ELISA (R&D systems), according to the manufacturer's instructions. To determine the generation of TRP-2-specific cytotoxic T lymphocytes, single cell suspensions were prepared at Day 10 from the spleens of mice immunized with PLG vaccines. These cells were initially stained with PE-H-2Kb/TRP2 pentamers (Sigma Aldrich), and subsequently stained with FITC-anti-CD8 and PE-CY7 CD3 mAb (mAb (BD Pharmingen, San Diego) before being analyzed using flow cytometry.

[7] = test system: B16-F10 melanoma cells; experiment: Example 8: therapeutic vaccination, B16-F10 melanoma; type: in vivo, C57BL/6J mice; conditions: vaccinated three days after tumor challenge
Description: PLG scaffolds containing B16-F10 melanoma tumor lysates, 100 μg CpG-ODN in combination with 3 μg GM-CSF, Flt3L or CCL20 were implanted subcutaneously into the lower left flank of C57BL/6J mice to act as cancer vaccines. To assess PLG vaccine efficacy in the therapeutic setting, C57/BL6J mice were challenged with a subcutaneous injection of 5×10^5 B16-F10 melanoma cells (ATCC, Manassas, N.J.) in the back of the neck, and 3 days after tumor challenge PLG vaccines were implanted subcutaneously into the lower left flank. Animals were monitored for the onset of tumor growth (approximately 1 mm^3) and sacrificed for humane reasons when tumors grew to 20-25 mm (longest diameter).

[8] = test system: bone marrow derived dendritic cells; experiment: Example 8: transwell chemotaxis and chemokinesis of bone marrow derived DCs; type: cell-based, C57BL/6 mice; conditions: 12 h; for DC chemotaxis, migration higher than control condition: 500 ng/ml in bottom wells; for DC chemokinesis, increase in number of migrated cells: homogenous cytokine 500 ng/ml
Description: Primary bone-marrow-derived dendritic cells (BMDCs) were flushed from the femurs of C57BL/6 mice and cultured in 100-mm bacteriological petri dishes (Falcon number 1029/Becton Dickinson). Cell culture medium RPMI-1640 (R10) (Sigma) was supplemented with 1% Penicillin-Streptomycin (Invitrogen), 2 mM 1-Glutamine (Invitrogen), 50 μM 2-mercaptoethanol (Sigma) and 10% heat-inactivated fetal bovine serum (FBS, Invitrogen). At day 0, bone marrow leukocytes were seeded at 2×10^6 cells per 100-mm dish in 10 ml R10 medium containing 20 ng/nil granulocyte-macrophage colony-stimulating factor (GM-CSF) (Peprotech). At day 3, another 10 ml R10 medium containing 20 ng/mL GM-CSF was added. to the plates. At days 6 and 8, half of the culture supernatant was collected and centrifuged, the cell pellet was resuspended in 10 ml fresh R10 containing 20 ng/mL GM-CSF, and placed back into the original plate. The non-adherent cell population in the culture supernatant was used between days 8 and 12 for all the experiments.
Transwell migration studies were performed by plating bone marrow derived dendritic cells in the top well of 6.5 mm transwell dishes (Costar, Cambridge, Mass.) with a pore size of 5 μm. The chemotactic effects of GM-CSF, FL (Flt3), and CCL20 on the migration of BMDCs was assessed by placing 500 ng/ml of recombinant murine GM-CSF, FL or CCL20 (Peprotech, Rocky Hill, N.J.) in the bottom wells and 3×10^5 DCs in the top wells. For chemokinesis studies, the concentration of cytokine in each compartment was equal at 500 ng/ml and 3×10^5 DCs were added to the top wells. The number of cells that migrated from the top well to the bottom well through the porous membrane was counted at the end of 12 h to quantify migration. Cells that had migrated to the bottom well were collected by treatment with 0.25% trypsin-0.03% ethylenediaminetetraacetic acid (EDTA, Invitrogen) and counted with a Z2 coulter counter (Beckman Coulter, Inc).

[9] = In vitro release / retention of GM-CSF, cytokines and TLR agonists from PLG scaffolds; type: physicochemical; conditions: for incorporated cytokine released from scaffolds: by day 4, in vitro; for daily release of protein: over the next 23 days after day 4
Description: To determine the incorporation efficiency of CpG-ODN incorporation, PLG scaffolds were prepared with 50 ug of CpG-ODN and digested in 1 ml of chloroform (Sigma Aldrich, and washed with 2 mls of aqueous buffer. The aqueous phase was isolated and the amount of CpG-ODN incorporated was determined by absorbance readings (260/280 and 260/230 ratios calculated at 0.2 mm pathlength) using a Nanodrop instrument, ND1000 (Nanodrop technologies, Wilmington, Del.). Similarly, to determine CpG-ODN release kinetics CpG-ODN loaded scaffolds were placed in 1 ml of Phosphate Buffer Solution (PBS) in an incubator (37° C.). At various timepoints, the PBS release media was collected and replaced with fresh media. The total amount of CpG-ODN incorporated into PLG scaffolds and released into PBS over time was analyzed and recorded.

[10] = test system: dendritic cells; experiment: Example 8: DC recruitment and activation in cytokine loaded PLG matrices (FACS, day 7); type: in vivo, C57BL/6J mice; conditions: for DC recruitment relative to blank PLG matrices: day 7
Description: To analyze DC recruitment by FACS analysis, scaffolds were excised and the ingrown tissue was digested into single cell suspensions using a collagenase solution (Worthingtion, 250 U/ml) that was agitated at 37° C. for 45 minutes. The cell suspensions were then poured through a 40 μm cell strainer to isolate cells from scaffold particles and the cells were pelleted and washed with cold PBS and counted using a Z2 coulter counter (Beckman Coulter). To assess, DC infiltration and activation, subsets of the total cell population isolated from PLG matrices were then stained with primary antibodies (BD Pharmingen, San Diego, Calif.) conjugated to fluorescent markers to allow for analysis by flow cytometry. APC-conjugated CD11c (dendritic cell marker), FITC-conjugated MHCII and PE-conjugated CD86 (B7, costimulatory molecule) stains were conducted for DC recruitment and activation analysis. To delineate the presence of the plasmacytoid DC subset, cells were also stained with APC-conjugated CD11c and PE-conjugated PDCA-1 (plasmacytoid DC marker). Cells were gated according to single positive FITC, APC and PE stainings using isotype controls. The percentage of cells staining positive for each surface antigen was recorded.

[11] = test system: TRP-2-specific cytotoxic T lymphocytes; experiment: Example 8: TRP-2-specific cytotoxic T lymphocytes in spleens (Day 10); set-up: species or system C57BL/6J mice; conditions: mouse, in vivo

Row | Molecule | complete tumor regression, fraction of vaccinated animals ([1]; mouse, in vivo) | survival rate [2] [%] | increase in IFNγ(+), CD107a(+) TILs in comparison to controls [3] [fold] | effect on IFN-α concentration at vaccine site [4] | CD8(+) DCs at implant site, higher than controls [5] | CD11c(+) cells positive for MHCII(+) and CD86(+), of total cells recruited [5] [%] | enhancement of total number of recruited DCs compared to GM-CSF delivery alone [5] [fold] | increase in total number of activated DCs relative to control matrices [5] | increase in local concentration of IFN-γ over control scaffolds [6] | increase in local concentration of IL-12 over control scaffolds [6] [fold] | long-term survival rate [7] [%] | DC chemotaxis, migration higher than control condition [8] | DC chemokinesis, increase in number of migrated cells [8] | incorporated cytokine released from scaffolds [9] [%] | daily release of protein [9] | DC recruitment relative to blank PLG matrices [10] [fold] | resident CD11c(+)PDCA-1(+) pDCs ([10]; in combination with CpG-ODN) | further results
1 | monophosphoryl lipid A [MPLA] | did not cause tumors to completely regress | 80 | ~1.4 | no effect | approximately 5 fold | ~19 | 1.9 | approximately 15 fold |  |  |  |  |  |  |  |  |  | increase in mean survival time over controls ([1]; vaccinated at days 9 and 19): ~1.5 fold; IL-12 concentration lower than CpG-ODN and P(I:C) [4]: 2 fold; higher levels of TNF-α [4]: 4 fold
2 | polyinosinic:polycytidylic acid [P(I:C)] | over a third | 70 | ~3.1 | elevated levels | approximately 5 fold | ~28 | 2.2 | ~20 fold |  |  |  |  |  |  |  |  |  | size of tumors that completely regressed / were eradicated ([1]; mouse, in vivo): 35 mm^2; long term survival of mice ([1]; vaccinated at days 9 and 19): 33%
3 | B1 |  |  |  |  |  |  |  |  | no effect | 2 | 62 | no effect | no effect | ~26 | approximately 0.9% | 2.5 | approximately 110,000 | 
4 | B2 |  |  |  |  |  |  |  |  | 13 fold | 8 | 75 | no effect | no effect | ~36 | approximately 0.9% | 2.5 | over 160,000 | Trp2 specific CTLs in spleens, higher than control vaccines [11]: approximately 5 fold; pDCs of total cells resident in scaffolds ([10]; in combination with CpG-ODN): approximately 22%
